In test [1] the target is EphA4 (Homo sapiens, UniProt P54764). Description: Kinase inhibition assay (LANCE or HTRF). Format: biochemical. Conditions: ATP at Km. (TR-FRET usually uses a lanthanide donor and a delayed reading to cut background.)
Procedure: (§2) The IC50 values were determined by measuring phosphorylation of peptide substrate poly at ATP concentrations at the Km.
Test [2] addresses TXK (Homo sapiens, UniProt P42681). The experiment in a line: Kinase inhibition assay (LANCE or HTRF). The conditions noted are these: ATP at Km. Format: biochemical.
Procedure: as §2
In test [3] the target is FLT1 (Homo sapiens, UniProt P17948). Description: Kinase inhibition assay (LANCE or HTRF). Format: biochemical. Conditions: ATP at Km.
Procedure: as §2
Test [4] has as its target RET (Homo sapiens, UniProt P07949). The experiment in a line: Kinase inhibition assay (LANCE or HTRF). Format: biochemical. Conditions: ATP at Km.
Procedure: as §2
Test [5] concerns the target T1, VEGFR2 (Homo sapiens, UniProt P35968). The experiment in a line: Kinase inhibition assay (LANCE or HTRF). Format: biochemical. The conditions noted are these: ATP at Km.
Procedure: as §2
Test [6] concerns the target HIPK4 (Homo sapiens, UniProt Q8NE63). Description: Kinase inhibition assay (LANCE or HTRF). It is filed as biochemical. The conditions noted are these: ATP at Km.
Procedure: as §2
Test [7] relates to phosphorylation of MET. The experiment in a line: Western blot of tumor lysates from GA3121 PDX model. It is filed as in vivo, immunodeficient mice. The conditions noted are these: 20 mg/kg, 21 days. From the text:
The SNU-5 cell line was selected for western blotting analysis of signaling molecules. […] Immunoreactive proteins (p-AXL, t-ERK and p-ERK) were visualized using the ECL system (Pierce Chemical, TX, USA). Other proteins were detected by Odyssey (LI-COR, NE, USA) at a wavelength of 700 nm or 800 nm. […] Tumor lysates were subjected to western blotting. The following antibodies were purchased from Cell Signaling Technology (Cell Signaling Technology Cat#3148, RRID : AB_1031042): anti-MET (Cell Signaling Technology Cat# 3148, RRID : AB_1031042), anti-p-MET Y1234/1235 (Antibodies-Online Cat# ABIN461461, RRID : AB_10786128), anti-AXL (Cell Signaling Technology Cat# 4566, RRID : AB_2062563), anti-p-AXL Y702 (5724S), anti-ERK (9107S), anti-p-ERK Thr202/Tyr204 (4370S), anti-p-AKT Ser473 (4060S), and anti-AKT (Cell Signaling Technology Cat# 2920, RRID : AB_1147620).
(§1) Human tumor xenografts were established in female BALB/cA nude mice (5-6 weeks old) by administering the SNU-5 and MKN-45 cells, which have high MET expression levels. […] The subcutaneous tumor size and body weight were measured twice weekly. The tumor volumes were determined by measuring two perpendicular diameters with calipers and calculated as (length × width^2)/2.

Test [8] concerns GA0046 PDX xenografts. Description: In vivo efficacy study, PDX model. More on the design: species or system immunodeficient mice. The protocol: as §1, with “levels. For efficacy studies in patient-derived tumor xenograft (PDX) mouse models, MET-overexpressing GA0046 and GA3121 tumors (obtained from Crownbio, CA, USA) were established by directly implanting surgical tissues into immunodeficient mice.” for “levels.”

Test [9] concerns GA3121 PDX xenografts. The experiment in a line: In vivo efficacy study, PDX model. More on the design: species or system immunodeficient mice. Conditions: 20 mg/kg once per day oral gavage. The protocol:
as §1, with “levels. For efficacy studies in patient-derived tumor xenograft (PDX) mouse models, MET-overexpressing GA0046 and GA3121 tumors (obtained from Crownbio, CA, USA) were established by directly implanting surgical tissues into immunodeficient mice.” for “levels.”

Test [10] has as its target RON (Homo sapiens, UniProt Q04912). Description: Kinase inhibition assay (LANCE or HTRF). It is filed as biochemical. The conditions noted are these: ATP at Km.
Procedure: as §2
The target in test [11] is MERTK (Homo sapiens, UniProt Q12866). Description: Kinase inhibition assay (LANCE or HTRF). It is filed as biochemical. Conditions: ATP at Km.
Procedure: as §2
Test [12] concerns AZ521. Description: Cell proliferation assay (CellTiter-Glo, 72 hours). Format: cell-based. Conditions: Homo sapiens, AZ-521, read-out: IC50 anti-proliferative.
Test [13] addresses Yes (Homo sapiens, UniProt P07947). The experiment in a line: Kinase inhibition assay (LANCE or HTRF). It is filed as biochemical. Conditions: ATP at Km.
Procedure: as §2
In test [14] the target is FLT4 (Homo sapiens, UniProt P35916). Description: Kinase inhibition assay (LANCE or HTRF). Format: biochemical. Conditions: ATP at Km.
FLT4, sequence (P35916 25-1363): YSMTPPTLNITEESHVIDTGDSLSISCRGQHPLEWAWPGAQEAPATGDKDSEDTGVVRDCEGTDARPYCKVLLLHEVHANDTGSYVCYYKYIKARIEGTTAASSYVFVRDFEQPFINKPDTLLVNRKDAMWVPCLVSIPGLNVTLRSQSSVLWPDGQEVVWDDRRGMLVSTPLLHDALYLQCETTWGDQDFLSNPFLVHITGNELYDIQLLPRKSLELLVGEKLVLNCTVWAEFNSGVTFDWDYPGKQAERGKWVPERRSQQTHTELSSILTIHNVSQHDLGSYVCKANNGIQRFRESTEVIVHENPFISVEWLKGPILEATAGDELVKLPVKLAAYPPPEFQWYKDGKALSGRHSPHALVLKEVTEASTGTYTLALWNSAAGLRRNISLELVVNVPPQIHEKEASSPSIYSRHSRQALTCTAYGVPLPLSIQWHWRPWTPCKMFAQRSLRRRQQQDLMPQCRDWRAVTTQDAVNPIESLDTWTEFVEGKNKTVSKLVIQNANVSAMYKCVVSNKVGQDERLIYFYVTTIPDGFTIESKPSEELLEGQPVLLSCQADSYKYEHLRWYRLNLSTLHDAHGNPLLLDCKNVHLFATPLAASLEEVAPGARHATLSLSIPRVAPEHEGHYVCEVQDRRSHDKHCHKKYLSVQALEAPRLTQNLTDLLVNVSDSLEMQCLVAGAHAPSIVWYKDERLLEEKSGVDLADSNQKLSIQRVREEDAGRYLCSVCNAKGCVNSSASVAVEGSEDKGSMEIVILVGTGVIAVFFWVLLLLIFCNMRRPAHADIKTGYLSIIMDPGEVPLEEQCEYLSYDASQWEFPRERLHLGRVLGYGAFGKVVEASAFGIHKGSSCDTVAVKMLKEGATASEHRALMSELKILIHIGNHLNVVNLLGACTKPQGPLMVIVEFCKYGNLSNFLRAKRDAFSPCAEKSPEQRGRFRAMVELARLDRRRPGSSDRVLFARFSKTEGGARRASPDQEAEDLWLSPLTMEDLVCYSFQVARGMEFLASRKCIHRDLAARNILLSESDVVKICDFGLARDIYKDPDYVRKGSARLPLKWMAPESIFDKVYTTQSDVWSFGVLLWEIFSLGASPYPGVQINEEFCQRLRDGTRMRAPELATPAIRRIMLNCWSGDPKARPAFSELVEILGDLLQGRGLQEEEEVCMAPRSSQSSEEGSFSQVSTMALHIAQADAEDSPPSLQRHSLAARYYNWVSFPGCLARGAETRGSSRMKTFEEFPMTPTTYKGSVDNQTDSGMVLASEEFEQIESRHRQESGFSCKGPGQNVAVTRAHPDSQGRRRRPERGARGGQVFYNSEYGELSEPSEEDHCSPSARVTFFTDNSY
Procedure: as §2
The target of test [15] is EphA6 (Homo sapiens, UniProt Q9UF33). Description: Kinase inhibition assay (LANCE or HTRF). The conditions noted are these: ATP at Km. Format: biochemical.
Procedure: as §2
Test [16] has as its target C-KIT (Homo sapiens, UniProt P10721). Description: Kinase inhibition assay (LANCE or HTRF). It is filed as biochemical. The conditions noted are these: ATP at Km.
Procedure: as §2
Test [17] concerns SNU-484. The experiment in a line: Cell proliferation assay (CellTiter-Glo, 72 hours). It is filed as cell-based. Conditions: Homo sapiens, read-out: IC50 anti-proliferative. (In general: Cellular ATP, detected with luciferase, serves as a proxy for viable cell number.)
The target of test [18] is MNK2 (Homo sapiens, UniProt Q9HBH9). The experiment in a line: Kinase inhibition assay (LANCE or HTRF). Format: biochemical. Conditions: ATP at Km.
Procedure: as §2
Test [19] has as its target LnyA (Homo sapiens, UniProt P07948). Description: Kinase inhibition assay (LANCE or HTRF). Format: biochemical. The conditions noted are these: ATP at Km.
Procedure: as §2
Test [20] relates to MKN45. The experiment in a line: Cell proliferation assay (CellTiter-Glo, 72 hours). It is filed as cell-based. The conditions noted are these: Homo sapiens, MKN-45, read-out: IC50 anti-proliferative.
Procedure: Human gastric tumor cell lines with high MET expression levels, namely, the GTL-16, MKN45, SNU638, Hs746T, SNU-620, and SNU-5 cell lines, were used in the assay. […] Cell viability was measured after 72 hours using a CellTiter-Glo Luminescent Cell Viability Assay Kit (Promega, WI, USA) according to the manufacturer’s instructions.
The target in test [21] is T1, VEGFR2. The experiment in a line: Cellular kinase phosphorylation assay (sandwich ELISA), HUVECs, VEGF-A stimulated. More on the design: endogenous in cells; host or cells: HUVEC. Format: cell-based. The protocol:
Phosphorylation of the receptors MET, AXL, VEGFR2, and FLT3 was assessed in the transgenic human MKN45 gastric tumor cell line overexpressing MET, mouse embryonic fibroblasts (MEFs) expressing full-length human AXL (AXL-MEFs), human umbilical vein endothelial cells (HUVECs) […], and MEFs expressing full-length human FLT3 (FLT3-wt-MEFs), respectively. […] Then, HUVECs and FLT3-wt-MEFs were stimulated with the ligands VEGF-A (100 ng/ml, for 3 min) and FLT3-ligand (50 ng/ml, for 5 min). MKN45 (overexpressing MET) and AXL-MEFs cells had no stimulation. Cells treated with staurosporine (AXL, FLT3-wt, c-Kit, FLT3, TIE2, VEGF-R2; [1,0E-05 M]) or BMS777607 (MET; [1,0E-06 M]) or sunitinib (VEGF-R3; [1,0E-06 M]) or crizotinib (RON; [1,0E-05 M] were defined as low control (n = 8). The median value of those wells represented the background and was set to 0%. Cells treated with solvent alone were defined as high control (n = 8). The median value of those wells was set to 100%. Test sample-treated cells as well as high and low control were stimulated in identical manner. Quantification of receptor tyrosine kinase autophosphorylation was assessed in 96-well plates via sandwich ELISA using a receptor specific capture antibody and an anti-phosphotyrosine detection antibody. […]

Some results are limits rather than exact numbers.

T1 sequence (P35968 20-1356): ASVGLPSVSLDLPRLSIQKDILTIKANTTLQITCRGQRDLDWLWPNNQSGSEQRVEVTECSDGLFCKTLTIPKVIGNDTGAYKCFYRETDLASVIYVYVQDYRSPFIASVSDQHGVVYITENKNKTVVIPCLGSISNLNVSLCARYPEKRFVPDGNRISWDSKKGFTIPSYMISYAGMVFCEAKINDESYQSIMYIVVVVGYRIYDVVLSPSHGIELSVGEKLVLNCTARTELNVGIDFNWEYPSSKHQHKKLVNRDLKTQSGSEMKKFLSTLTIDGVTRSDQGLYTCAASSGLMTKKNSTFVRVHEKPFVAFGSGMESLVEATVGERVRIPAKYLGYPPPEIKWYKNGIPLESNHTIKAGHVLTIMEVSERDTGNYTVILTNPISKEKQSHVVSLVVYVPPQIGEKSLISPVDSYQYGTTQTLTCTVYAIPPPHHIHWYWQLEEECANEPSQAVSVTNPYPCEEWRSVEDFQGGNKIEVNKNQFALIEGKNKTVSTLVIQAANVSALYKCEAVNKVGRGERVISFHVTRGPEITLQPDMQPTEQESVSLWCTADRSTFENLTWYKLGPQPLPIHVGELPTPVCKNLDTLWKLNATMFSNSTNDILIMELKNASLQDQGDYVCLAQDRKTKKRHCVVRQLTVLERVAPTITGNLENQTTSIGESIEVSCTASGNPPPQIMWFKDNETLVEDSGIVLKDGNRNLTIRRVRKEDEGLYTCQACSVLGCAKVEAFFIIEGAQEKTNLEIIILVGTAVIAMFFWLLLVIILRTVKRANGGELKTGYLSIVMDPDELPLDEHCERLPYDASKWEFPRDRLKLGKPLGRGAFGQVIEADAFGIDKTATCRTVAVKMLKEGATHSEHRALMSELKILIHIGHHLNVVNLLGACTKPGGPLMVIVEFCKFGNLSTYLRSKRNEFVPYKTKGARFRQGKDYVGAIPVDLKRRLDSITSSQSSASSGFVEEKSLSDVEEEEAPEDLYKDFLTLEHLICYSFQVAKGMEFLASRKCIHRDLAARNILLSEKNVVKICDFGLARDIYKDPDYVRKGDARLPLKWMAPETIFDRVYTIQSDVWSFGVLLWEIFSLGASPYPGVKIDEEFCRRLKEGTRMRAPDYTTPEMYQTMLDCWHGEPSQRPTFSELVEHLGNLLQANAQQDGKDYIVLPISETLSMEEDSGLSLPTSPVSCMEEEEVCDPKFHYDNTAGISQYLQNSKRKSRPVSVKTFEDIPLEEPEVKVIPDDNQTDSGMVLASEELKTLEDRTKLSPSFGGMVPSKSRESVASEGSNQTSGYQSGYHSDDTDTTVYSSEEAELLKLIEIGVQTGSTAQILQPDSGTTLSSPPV
RET, sequence (P07949 29-1114): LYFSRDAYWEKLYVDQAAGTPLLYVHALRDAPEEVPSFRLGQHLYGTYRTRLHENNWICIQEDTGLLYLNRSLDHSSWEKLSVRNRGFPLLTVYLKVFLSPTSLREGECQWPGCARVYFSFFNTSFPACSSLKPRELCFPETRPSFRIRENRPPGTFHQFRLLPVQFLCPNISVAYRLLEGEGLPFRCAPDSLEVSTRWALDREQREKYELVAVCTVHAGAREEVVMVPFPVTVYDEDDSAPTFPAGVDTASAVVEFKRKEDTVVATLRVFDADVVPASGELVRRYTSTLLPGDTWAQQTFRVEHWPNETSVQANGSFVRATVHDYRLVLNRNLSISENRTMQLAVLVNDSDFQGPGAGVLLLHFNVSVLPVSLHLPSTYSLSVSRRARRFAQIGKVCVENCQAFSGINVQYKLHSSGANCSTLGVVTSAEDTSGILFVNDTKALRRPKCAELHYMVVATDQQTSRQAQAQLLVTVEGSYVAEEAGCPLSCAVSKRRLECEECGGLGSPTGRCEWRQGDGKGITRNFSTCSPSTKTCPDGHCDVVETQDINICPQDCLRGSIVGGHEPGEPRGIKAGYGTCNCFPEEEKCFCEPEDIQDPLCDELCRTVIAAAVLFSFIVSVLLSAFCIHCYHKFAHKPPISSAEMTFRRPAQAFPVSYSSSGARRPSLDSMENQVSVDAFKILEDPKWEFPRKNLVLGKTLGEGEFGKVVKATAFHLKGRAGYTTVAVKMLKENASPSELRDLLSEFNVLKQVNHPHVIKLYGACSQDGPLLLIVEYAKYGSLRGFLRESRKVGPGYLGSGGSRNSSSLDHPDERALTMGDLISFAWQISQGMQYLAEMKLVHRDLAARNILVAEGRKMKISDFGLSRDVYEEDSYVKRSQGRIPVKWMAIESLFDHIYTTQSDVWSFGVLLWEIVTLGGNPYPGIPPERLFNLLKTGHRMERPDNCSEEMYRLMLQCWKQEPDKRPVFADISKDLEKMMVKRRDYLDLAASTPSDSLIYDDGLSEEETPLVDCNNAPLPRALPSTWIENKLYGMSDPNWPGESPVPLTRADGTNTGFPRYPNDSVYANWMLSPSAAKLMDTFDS
LnyA, sequence (P07948 whole entry): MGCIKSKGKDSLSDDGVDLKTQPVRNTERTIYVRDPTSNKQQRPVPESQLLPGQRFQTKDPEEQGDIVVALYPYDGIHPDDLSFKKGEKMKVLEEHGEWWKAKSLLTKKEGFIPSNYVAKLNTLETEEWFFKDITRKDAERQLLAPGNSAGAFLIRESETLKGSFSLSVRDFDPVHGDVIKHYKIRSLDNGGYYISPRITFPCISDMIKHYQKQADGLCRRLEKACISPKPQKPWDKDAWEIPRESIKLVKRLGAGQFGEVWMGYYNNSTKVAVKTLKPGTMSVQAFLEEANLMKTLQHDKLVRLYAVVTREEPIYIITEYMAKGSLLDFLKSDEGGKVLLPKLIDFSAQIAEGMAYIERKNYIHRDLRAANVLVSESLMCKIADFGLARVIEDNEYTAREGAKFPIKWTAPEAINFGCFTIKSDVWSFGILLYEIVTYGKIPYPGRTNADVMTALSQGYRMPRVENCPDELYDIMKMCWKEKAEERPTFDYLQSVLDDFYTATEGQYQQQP
Yes, sequence (P07947 whole entry): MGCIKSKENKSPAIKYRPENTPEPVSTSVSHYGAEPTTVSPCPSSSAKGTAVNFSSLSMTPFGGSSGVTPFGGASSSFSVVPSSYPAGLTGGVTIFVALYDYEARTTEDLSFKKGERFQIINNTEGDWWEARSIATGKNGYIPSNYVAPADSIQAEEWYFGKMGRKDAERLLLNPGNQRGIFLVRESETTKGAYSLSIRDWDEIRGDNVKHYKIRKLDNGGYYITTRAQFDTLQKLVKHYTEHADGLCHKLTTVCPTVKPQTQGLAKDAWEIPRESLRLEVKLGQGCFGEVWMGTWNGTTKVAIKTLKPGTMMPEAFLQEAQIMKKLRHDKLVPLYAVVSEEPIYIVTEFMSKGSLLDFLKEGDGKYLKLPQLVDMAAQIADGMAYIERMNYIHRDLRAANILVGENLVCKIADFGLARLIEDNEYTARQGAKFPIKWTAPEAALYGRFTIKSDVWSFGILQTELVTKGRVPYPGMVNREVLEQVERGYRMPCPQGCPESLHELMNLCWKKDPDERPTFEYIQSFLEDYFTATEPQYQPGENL

As a reminder, the IC50 is the concentration needed to halve the response being measured. For the molecule `Cc1c(C(=O)Nc2ccc(Oc3ccnc4cc(OCC(C)(C)O)ccc34)c(F)c2)c(=O)n(-c2ccccc2)n1C` [CT053], the half-maximal inhibitory concentration (IC50) in test [1] turned out to be 370 nM; in test [2] it was 270 nM; in [3] it was 6100 nM; in [4] it was 200 nM; in test [5] it was 46 nM; in test [6], 180 nM. Moreover, the IC50 in [10] is 160 nM; in [11], 14 nM; in test [12] it was more than 10000 nM; in test [13] it was 110 nM; in test [14], 46 nM; in test [15], 81 nM. The IC50 in [16] turned out to be 960 nM; in test [17], 8500 nM; in [18] it was 55 nM; in test [19], 240 nM; in [20], 100 nM; in test [21] (HUVECs, VEGF-A 100 ng/ml, read-out: IC50, phosphorylation of VEGFR2), 1.1 nM. In test [21] (printed in Figure 1E, read-out: phospho-VEGF-R2: IC50), the concentration for half-maximal inhibition (IC50) turned out to be 1.1 nM. In [7], the “phosphorylation of MET in tumors vs vehicle” value is “significantly inhibited”. Moreover, the TGI in test [8] (3 mg/kg once per day oral gavage) was determined as 18%; in test [8] (10 mg/kg once per day oral gavage), 57%; in test [8] (20 mg/kg once per day oral gavage), 75%; in [9], 172%.

The record behind these values is PMC9632963, “Preclinical characterization and phase I clinical trial of CT053PTSA targets MET, AXL, and VEGFR2 in patients with advanced solid tumors” (Frontiers in Immunology, 2022).
